Measured values: the supplement of paper PMC10307832

Tests used:
Test in all cases: relative viability (nuclei count vs DMSO), 5 days (fraction); higher = more cells survive
[1] = compound: C1=CC2=NC=CN=C2C=C1/C=C/3\C(=O)NC(=O)S3 + CC(C)C[C@H](NC(=O)[C@H](Cc1ccccc1)NC(=O)c1cnccn1)B(O)O [Bortezomib] (partner 0.002 µM)
Outline: (§1)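 Relative viability divides the nuclei count in treated wells by that in vehicle wells. Lung cancer cell lines were seeded in 1536-well plates, dosed by pin tool the next day, and fixed and stained after 5 days in one step with final 0.05% Triton X-100, 1% formaldehyde and 1 ug/ml Hoechst. Dosing was a single drug or a fixed anchor-drug dose plus five library-drug doses (not always all listed) in √10 steps, and values are medians of duplicate plates imaged at 4×.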

BGJ398 + Alpelisib = compound: CCN1CCN(c2ccc(Nc3cc(N(C)C(=O)Nc4c(Cl)c(OC)cc(OC)c4Cl)ncn3)cc2)CC1 [BGJ398] + Cc1nc(NC(=O)N2CCC[C@H]2C(N)=O)sc1-c1ccnc(C(C)(C)C(F)(F)F)c1 [Alpelisib] (partner 2 µM)
Outline: as §1

[2] = compound: C1=CC2=NC=CN=C2C=C1/C=C/3\C(=O)NC(=O)S3 + C[C@]1(O)C[C@@H](c2nc(-c3ccc4ccc(-c5ccccc5)nc4c3)c3c(N)nccn32)C1 [Linsitinib] (partner 1 µM)
Outline: as §1

[3] = compound: C1=CC2=NC=CN=C2C=C1/C=C/3\C(=O)NC(=O)S3 + CC1(C)CCC(c2ccc(Cl)cc2)=C(CN2CCN(c3ccc(C(=O)NS(=O)(=O)c4ccc(N[C@H](CCN5CCOCC5)CSc5ccccc5)c(S(=O)(=O)C(F)(F)F)c4)cc3)CC2)C1 [Navitoclax] (partner 0.5 µM)
Outline: as §1

UMC-11
relative viability ([1]; first compound 0.02 µM): 0.869
relative viability ([1]; first compound 0.06325 µM): 0.965
relative viability ([1]; first compound 0.2 µM): 0.523
relative viability ([1]; first compound 0.6325 µM): 0.591
relative viability ([1]; first compound 2 µM): 0.997
relative viability (BGJ398 + Alpelisib; first compound 0.01 µM): 0.999
relative viability (BGJ398 + Alpelisib; first compound 0.03162 µM): 0.88
relative viability (BGJ398 + Alpelisib; first compound 0.1 µM): 1.06
relative viability (BGJ398 + Alpelisib; first compound 0.3162 µM): 0.983
relative viability (BGJ398 + Alpelisib; first compound 1 µM): 0.907
relative viability ([2]; first compound 0.02 µM): 1.02
relative viability ([2]; first compound 0.06325 µM): 1.12
relative viability ([2]; first compound 0.2 µM): 1.05
relative viability ([2]; first compound 0.6325 µM): 0.989
relative viability ([2]; first compound 2 µM): 1.11
relative viability ([3]; first compound 0.02 µM): 0.296
relative viability ([3]; first compound 0.06325 µM): 0.397
relative viability ([3]; first compound 0.2 µM): 0.312
relative viability ([3]; first compound 0.6325 µM): 0.307
relative viability ([3]; first compound 2 µM): 0.302
